ChEMBL document CHEMBL2016493, “Design, synthesis, synergistic antimicrobial activity and cytotoxicity of 4-aryl substituted 3,4-dihydropyrimidinones of curcumin” (Bioorg Med Chem Lett, 2012)
The source made the active and inactive calls. No cut-off for these calls is given here.

What was measured:
[1] = system: QG-56; assay: Cytotoxicity against human QG56 cells after 48 hrs by MTT assay; assay type: functional, cell-based
[2] = system: Escherichia coli; assay: Antibacterial activity against Escherichia coli ATCC 35218 at 160 uM/ml after 24 hrs by kirby-bauer method; assay type: functional; conditions: ATCC 35218, 24 h, read-out: IZ
[3] = system: Aspergillus niger; assay: Antifungal activity against Aspergillus niger MTCC 1108 at 80 uM/ml after 48 hrs by paper disc diffusion method; assay type: functional; conditions: for zone of inhibition at 80 µM: MTCC 1108, 48 h, read-out: IZ
[4] = system: Staphylococcus aureus; assay: Antibacterial activity against Staphylococcus aureus ATCC 11632 at 80 uM/ml after 24 hrs by kirby-bauer method; assay type: functional; conditions: ATCC 11632, 24 h, read-out: IZ
[5] = system: Trichoderma viride; assay: Antifungal activity against Trichoderma viride MTCC 1107 at 80 uM/ml after 48 hrs by paper disc diffusion method; assay type: functional; conditions: MTCC 1107, 48 h, read-out: IZ
[6] = system: Trichoderma viride; assay: Antifungal activity against Trichoderma viride MTCC 1107 at 160 uM/ml after 48 hrs by paper disc diffusion method; assay type: functional; conditions: MTCC 1107, 48 h, read-out: IZ
[7] = system: HepG2
[8] = system: Aspergillus flavus; assay: Antifungal activity against Aspergillus flavus MTCC 1021 at 20 uM/ml after 48 hrs by paper disc diffusion method; assay type: functional
[9] = system: Staphylococcus aureus; assay: Antibacterial activity against Staphylococcus aureus ATCC 11632 at 160 uM/ml after 24 hrs by kirby-bauer method; assay type: functional; conditions: ATCC 11632, 24 h, read-out: IZ
[10] = system: Staphylococcus aureus; assay: Antibacterial activity against Staphylococcus aureus ATCC 11632 at 20 uM/ml after 24 hrs by kirby-bauer method; assay type: functional
[11] = system: Trichoderma viride; assay: Antifungal activity against Trichoderma viride MTCC 1107 at 20 uM/ml after 48 hrs by paper disc diffusion method; assay type: functional; conditions: MTCC 1107, 48 h, read-out: IZ
[12] = system: Pseudomonas aeruginosa; assay: Antibacterial activity against Pseudomonas aeruginosa ATCC 15499 at 80 uM/ml after 24 hrs by kirby-bauer method; assay type: functional
[13] = system: Aspergillus flavus; assay: Antifungal activity against Aspergillus flavus MTCC 1021 at 40 uM/ml after 48 hrs by paper disc diffusion method; assay type: functional
[14] = system: Aspergillus niger; assay: Antifungal activity against Aspergillus niger MTCC 1108 at 20 uM/ml after 48 hrs by paper disc diffusion method; assay type: functional
[15] = system: Burkholderia pseudomallei; assay: Antibacterial activity against Burkholderia pseudomallei NTCC 10274 at 160 uM/ml after 24 hrs by kirby-bauer method; assay type: functional; conditions: for zone of inhibition at 160 µM: NTCC 10274, 24 h, read-out: IZ
[16] = system: Aspergillus niger; assay: Antifungal activity against Aspergillus niger MTCC 1108 at 160 uM/ml after 48 hrs by paper disc diffusion method; assay type: functional; conditions: MTCC 1108, 48 h, read-out: IZ
[17] = system: Pseudomonas aeruginosa; assay: Antibacterial activity against Pseudomonas aeruginosa ATCC 15499 at 160 uM/ml after 24 hrs by kirby-bauer method; assay type: functional; conditions: for zone of inhibition at 160 µM: ATCC 15499, 24 h, read-out: IZ
[18] = system: Burkholderia pseudomallei; assay: Antibacterial activity against Burkholderia pseudomallei NTCC 10274 at 20 uM/ml after 24 hrs by kirby-bauer method; assay type: functional
[19] = system: Aspergillus flavus; assay: Antifungal activity against Aspergillus flavus MTCC 1021 at 160 uM/ml after 48 hrs by paper disc diffusion method; assay type: functional; conditions: for zone of inhibition at 160 µM: MTCC 1021, 48 h, read-out: IZ
[20] = system: Curvularia lunata; assay: Antifungal activity against Curvularia lunata MTCC 581 at 20 uM/ml after 48 hrs by paper disc diffusion method; assay type: functional; conditions: MTCC 581, 48 h, read-out: IZ
[21] = system: Escherichia coli; assay: Antibacterial activity against Escherichia coli ATCC 35218 at 20 uM/ml after 24 hrs by kirby-bauer method; assay type: functional; conditions: for zone of inhibition at 20 µM: ATCC 35218, 24 h, read-out: IZ
[22] = system: Escherichia coli; assay: Antibacterial activity against Escherichia coli ATCC 35218 at 80 uM/ml after 24 hrs by kirby-bauer method; assay type: functional; conditions: ATCC 35218, 24 h, read-out: IZ
[23] = system: Escherichia coli; assay: Antibacterial activity against Escherichia coli ATCC 35218 at 40 uM/ml after 24 hrs by kirby-bauer method; assay type: functional; conditions: ATCC 35218, 24 h, read-out: IZ
[24] = system: Trichoderma viride; assay: Antifungal activity against Trichoderma viride MTCC 1107 at 40 uM/ml after 48 hrs by paper disc diffusion method; assay type: functional; conditions: MTCC 1107, 48 h, read-out: IZ
[25] = system: Pseudomonas aeruginosa; assay: Antibacterial activity against Pseudomonas aeruginosa ATCC 15499 at 20 uM/ml after 24 hrs by kirby-bauer method; assay type: functional
[26] = system: Burkholderia pseudomallei; assay: Antibacterial activity against Burkholderia pseudomallei NTCC 10274 at 80 uM/ml after 24 hrs by kirby-bauer method; assay type: functional; conditions: NTCC 10274, 24 h, read-out: IZ
[27] = system: Staphylococcus aureus; assay: Antibacterial activity against Staphylococcus aureus ATCC 11632 at 40 uM/ml after 24 hrs by kirby-bauer method; assay type: functional
[28] = system: Aspergillus flavus; assay: Antifungal activity against Aspergillus flavus MTCC 1021 at 80 uM/ml after 48 hrs by paper disc diffusion method; assay type: functional
[29] = system: Pseudomonas aeruginosa; assay: Antibacterial activity against Pseudomonas aeruginosa ATCC 15499 at 40 uM/ml after 24 hrs by kirby-bauer method; assay type: functional
[30] = system: Curvularia lunata; assay: Antifungal activity against Curvularia lunata MTCC 581 at 160 uM/ml after 48 hrs by paper disc diffusion method; assay type: functional; conditions: MTCC 581, 48 h, read-out: IZ
[31] = system: Aspergillus niger; assay: Antifungal activity against Aspergillus niger MTCC 1108 at 40 uM/ml after 48 hrs by paper disc diffusion method; assay type: functional
[32] = system: Curvularia lunata; assay: Antifungal activity against Curvularia lunata MTCC 581 at 80 uM/ml after 48 hrs by paper disc diffusion method; assay type: functional; conditions: MTCC 581, 48 h, read-out: IZ
[33] = system: Salmonella typhimurium; assay: Antibacterial activity against Salmonella typhimurium ATCC 23564 at 160 uM/ml after 24 hrs by kirby-bauer method; assay type: functional; conditions: for zone of inhibition at 160 µM: Salmonella enterica, ATCC 23564, 24 h, read-out: IZ
[34] = system: HCT-116
[35] = system: Curvularia lunata; assay: Antifungal activity against Curvularia lunata MTCC 581 at 40 uM/ml after 48 hrs by paper disc diffusion method; assay type: functional; conditions: MTCC 581, 48 h, read-out: IZ
[36] = system: Burkholderia pseudomallei; assay: Antibacterial activity against Burkholderia pseudomallei NTCC 10274 at 40 uM/ml after 24 hrs by kirby-bauer method; assay type: functional; conditions: NTCC 10274, 24 h, read-out: IZ
[37] = system: Salmonella typhimurium; assay: Antibacterial activity against Salmonella typhimurium ATCC 23564 at 40 uM/ml after 24 hrs by kirby-bauer method; assay type: functional
[38] = system: Salmonella typhimurium; assay: Antibacterial activity against Salmonella typhimurium ATCC 23564 at 80 uM/ml after 24 hrs by kirby-bauer method; assay type: functional, Salmonella enterica subsp. enterica serovar Typhimurium; conditions: Salmonella enterica, ATCC 23564, 24 h; read-out: IZ
[39] = system: Salmonella typhimurium; assay: Antibacterial activity against Salmonella typhimurium ATCC 23564 at 20 uM/ml after 24 hrs by kirby-bauer method; assay type: functional
[40] = Salmonella enterica subsp. enterica serovar Typhimurium
[41] = Salmonella enterica, ATCC 23564, 24 h, read-out: IZ

SMILES	IC50 [1] [uM/ml]	zone of inhibition at 160 µM [2] [mm]	zone of inhibition at 80 µM [3] [mm]	zone of inhibition at 80 µM [4] [mm]	zone of inhibition at 80 µM [5] [mm]	zone of inhibition at 160 µM [6] [mm]	IC50 [7] [uM/ml]	zone of inhibition at 160 µM [9] [mm]	inhibition zone (IZ) [10]	zone of inhibition at 20 µM [11] [mm]	inhibition zone (IZ) [14]	zone of inhibition at 160 µM [16] [mm]	zone of inhibition at 20 µM [20] [mm]	zone of inhibition at 80 µM [22] [mm]	zone of inhibition at 40 µM [23] [mm]	zone of inhibition [24] [mm]	zone of inhibition at 160 µM [30] [mm]	zone of inhibition at 80 µM [32] [mm]	IC50 [34] [uM/ml]	zone of inhibition at 40 µM [35] [mm]	other results
COc1cc(/C=C/C(=O)C2=C(/C=C/c3ccc(O)c(OC)c3)NC(=S)NC2c2ccc(O)cc2)ccc1O (stereo not given)	50	22	11	10	17	20	100	12	inactive	11	inactive	14	20	18	17	14	24	22	50	21	zone of inhibition at 20 µM ([8]; MTCC 1021, 48 h, read-out: IZ): 9 mm; zone of inhibition at 80 µM ([12]; ATCC 15499, 24 h, read-out: IZ): 14 mm; zone of inhibition at 40 µM ([13]; MTCC 1021, 48 h, read-out: IZ): 11 mm; zone of inhibition at 160 µM [15]: 19 mm; zone of inhibition at 160 µM [17]: 18 mm; zone of inhibition at 20 µM ([18]; NTCC 10274, 24 h, read-out: IZ): 14 mm; zone of inhibition at 160 µM [19]: 15 mm; zone of inhibition at 20 µM [21]: 13 mm; zone of inhibition at 20 µM ([25]; ATCC 15499, 24 h, read-out: IZ): 9 mm; zone of inhibition at 80 µM [26]: 17 mm; inhibition zone (IZ) [27]: inactive; zone of inhibition at 80 µM ([28]; MTCC 1021, 48 h, read-out: IZ): 13 mm; zone of inhibition at 40 µM ([29]; ATCC 15499, 24 h, read-out: IZ): 12 mm; zone of inhibition at 40 µM ([31]; MTCC 1108, 48 h, read-out: IZ): 9 mm; inhibition zone (IZ) [33, 40]: inactive; zone of inhibition at 40 µM [36]: 16 mm
COc1cc(/C=C/C(=O)C2=C(/C=C/c3ccc(O)c(OC)c3)NC(=O)NC2c2ccc(Cl)cc2)ccc1O (stereo not given)	100	19	–	10	17	18	100	12	inactive	15	inactive	12	9	16	11	17	22	18	100	12	inhibition zone (IZ) [3]: inactive; inhibition zone (IZ) [12]: inactive; inhibition zone (IZ) [15]: inactive; zone of inhibition at 160 µM [17]: 9 mm; inhibition zone (IZ) [19]: inactive; zone of inhibition at 20 µM [21]: 9 mm; inhibition zone (IZ) [25]: inactive; inhibition zone (IZ) [37, 40]: inactive; inhibition zone (IZ) [27]: inactive; inhibition zone (IZ) [29]: inactive; inhibition zone (IZ) [31]: inactive; zone of inhibition at 160 µM [33]: 11 mm; zone of inhibition at 80 µM [38]: 9 mm; inhibition zone (IZ) [39, 40]: inactive
COc1cc(/C=C/C(=O)C2=C(/C=C/c3ccc(O)c(OC)c3)NC(=S)NC2c2ccc(Cl)cc2)ccc1O (stereo not given)	100	19	9	13	22	24	100	16	–	18	inactive	11	9	15	9	19	15	13	50	12	inhibition zone (IZ) [8]: inactive; zone of inhibition at 20 µM ([10]; ATCC 11632, 24 h, read-out: IZ): 9 mm; inhibition zone (IZ) [13]: inactive; zone of inhibition at 160 µM [15]: 16 mm; inhibition zone (IZ) [17]: inactive; inhibition zone (IZ) [18]: inactive; zone of inhibition at 160 µM [19]: 9 mm; inhibition zone (IZ) [21]: inactive; zone of inhibition at 40 µM [37, 41]: 17 mm; zone of inhibition at 80 µM [26]: 12 mm; zone of inhibition at 40 µM ([27]; ATCC 11632, 24 h, read-out: IZ): 11 mm; inhibition zone (IZ) [28]: inactive; inhibition zone (IZ) [31]: inactive; zone of inhibition at 160 µM [33]: 22 mm; zone of inhibition at 40 µM [36]: 9 mm; zone of inhibition at 80 µM [38]: 19 mm; zone of inhibition at 20 µM [39, 41]: 13 mm
